In paper PMC9715617 (Frontiers in Pharmacology, 2022):

These molecules were tested against SARS-CoV-2 3CL^pro (Severe acute respiratory syndrome coronavirus 2, UniProt P0DTD1) (assay: SARS-CoV-2 3CLpro enzyme inhibition assay (fluorophore-quencher peptide substrate)). Details: 200 nM 3CLpro, 20 min preincubation, 30 min at 25°C, triplicate.
Format: biochemical
Method: Fluorescence intensity was measured on a microplate reader (λex = 485 nm; λem = 528 nm). Experiment was performed in triplicate.
O=C(N[C@@H](c1cccc(F)c1)C(F)(F)F)[C@@H](c1cnccn1)N(C(=O)c1ccco1)c1ccc(C2CCCCC2)cc1 [Hit 1] showed an IC50 of 17 ± 3 nM. For O=C(NCc1c(F)c(F)c(F)c(F)c1F)[C@@H](c1cccnc1)N(C(=O)c1ccno1)c1ccc(-c2cccs2)cc1 [Hit 2], the IC50 was 830 ± 110 nM. C[C@H](NC(=O)[C@@H](c1cccnc1)N(C(=O)c1ccno1)c1ccc(C2CCCCC2)cc1)c1cccc(F)c1F [Hit 3] gave an IC50 of 90 ± 20 nM. With O=C(NCc1ccccc1)[C@@H](c1cccnc1)N(C(=O)c1ccco1)c1ccc(-c2cccs2)cc1 [Hit 4] the IC50 was 750 ± 40 nM. O=C(Nc1ccc(N(Cc2ccsc2)C(=O)Cn2nnc3ccccc32)cc1)C1CC1 [ML300, reference compound] gave an IC50 of 4010 ± 660 nM.

Same assay, conditions: ratio of IC50 values vs ML300
O=C(N[C@@H](c1cccc(F)c1)C(F)(F)F)[C@@H](c1cnccn1)N(C(=O)c1ccco1)c1ccc(C2CCCCC2)cc1 [Hit 1] was tested, and the “inhibition activity, times stronger than that of ML300” value was “about 236 times”.
